What was measured:
Assay in all cases: relative viability (nuclei count vs DMSO), 5 days (fraction); higher = more cells survive
IDH-C35 + Alpelisib = compound: Cc1ccccc1C(C(=O)NC1CCCCC1)N(C(=O)Cn1ccnc1C)c1cccc(F)c1 [IDH-C35] + Cc1nc(NC(=O)N2CCC[C@H]2C(N)=O)sc1-c1ccnc(C(C)(C)C(F)(F)F)c1 [Alpelisib] (partner 2 µM)
In short: (§1)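 Relative viability is defined as nuclei in treated wells over nuclei in vehicle wells. Duplicate plates were run and medians reported. Lung cancer cell lines in 1536-well plates were dosed by pin tool one day after seeding, with one drug or with a fixed anchor-drug dose plus five library-drug doses (not always all listed) in √10 steps, and nuclei were counted after 5 days.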

IDH-C35 + Olaparib = compound: Cc1ccccc1C(C(=O)NC1CCCCC1)N(C(=O)Cn1ccnc1C)c1cccc(F)c1 [IDH-C35] + O=C(c1cc(Cc2n[nH]c(=O)c3ccccc23)ccc1F)N1CCN(C(=O)C2CC2)CC1 [Olaparib] (partner 8 µM)
In short: as §1

[1] = compound: CC1=C(C(=NN1)C)CC2=C(C3=C(S2)N(C(=O)N(C3=O)C)CC(C)C)C(=O)N4C[C@@H](CO4)O + CS(=O)(=O)CCNCc1ccc(-c2ccc3ncnc(Nc4ccc(OCc5cccc(F)c5)c(Cl)c4)c3c2)o1 [Lapatinib] (partner 2 µM)
In short: as §1

IDH-C35 + Tozasertib = compound: Cc1ccccc1C(C(=O)NC1CCCCC1)N(C(=O)Cn1ccnc1C)c1cccc(F)c1 [IDH-C35] + Cc1cc(Nc2cc(N3CCN(C)CC3)nc(Sc3ccc(NC(=O)C4CC4)cc3)n2)n[nH]1 [Tozasertib] (partner 0.1 µM)
In short: as §1

Cell Line	relative viability (IDH-C35 + Alpelisib; first compound 0.08 µM)	relative viability (IDH-C35 + Alpelisib; first compound 0.253 µM)	relative viability (IDH-C35 + Alpelisib; first compound 0.8 µM)	relative viability (IDH-C35 + Alpelisib; first compound 2.53 µM)	relative viability (IDH-C35 + Alpelisib; first compound 8 µM)	relative viability (IDH-C35 + Olaparib; first compound 0.08 µM)	relative viability (IDH-C35 + Olaparib; first compound 0.253 µM)	relative viability (IDH-C35 + Olaparib; first compound 0.8 µM)	relative viability (IDH-C35 + Olaparib; first compound 2.53 µM)	relative viability (IDH-C35 + Olaparib; first compound 8 µM)	relative viability ([1]; first compound 0.0025 µM)	relative viability ([1]; first compound 0.007906 µM)	relative viability ([1]; first compound 0.025 µM)	relative viability ([1]; first compound 0.07906 µM)	relative viability ([1]; first compound 0.25 µM)	relative viability (IDH-C35 + Tozasertib; first compound 0.08 µM)	relative viability (IDH-C35 + Tozasertib; first compound 0.253 µM)	relative viability (IDH-C35 + Tozasertib; first compound 0.8 µM)	relative viability (IDH-C35 + Tozasertib; first compound 2.53 µM)	relative viability (IDH-C35 + Tozasertib; first compound 8 µM)
201T	0.989	0.998	0.95	0.968	1.02	0.762	0.824	0.799	0.81	0.841	1.05	1	1.03	0.986	1.06	0.927	0.914	0.893	0.928	0.828
A549	0.734	0.871	0.771	0.744	0.726	0.447	0.346	0.268	0.168	0.112	1.08	1.07	1.04	0.976	1.08	–	–	–	–	–
A-427	1.06	1.04	1.04	1.07	1.1	0.698	0.637	0.732	0.742	0.77	1	1.09	0.679	1.02	1.08	0.216	0.221	0.215	0.206	0.182
ABC-1	0.907	1.03	1	1.05	0.857	0.668	1.04	0.77	0.819	0.906	1.5	0.918	1.12	0.92	0.823	0.188	0.171	0.188	0.146	0.176
BEN	0.988	0.927	0.885	0.975	0.942	1.06	1.11	1.03	0.952	0.995	0.669	0.672	0.629	0.526	0.741	0.5	0.429	0.515	0.474	0.552
CAL-12T	1.26	1.26	1.11	1.14	1.1	0.761	0.73	0.629	0.747	0.701	0.822	0.82	–	0.837	0.766	0.307	0.306	0.303	0.379	0.301
COR-L23	0.759	0.765	0.782	0.769	0.746	0.332	0.391	0.317	0.31	0.349	0.883	0.846	0.656	0.826	0.923	0.253	0.174	0.263	0.195	0.158
COR-L 105	1.04	1.08	1.13	0.882	0.99	0.606	0.681	0.713	0.614	0.714	0.36	0.422	0.381	0.302	0.369	0.351	0.313	0.386	0.383	0.337
Calu-6	1	0.973	0.955	0.97	1.05	0.57	0.563	0.609	0.558	0.571	1.13	1.06	0.947	1.04	1.19	–	–	–	–	–
ChaGo-K-1	–	–	–	–	–	0.432	0.432	0.438	0.452	0.42	–	–	–	–	–	0.22	0.231	0.221	0.258	0.203
EBC-1	0.879	0.826	0.843	0.867	0.738	0.702	0.689	0.724	0.778	0.703	0.201	0.204	0.217	0.203	0.204	–	–	–	–	–
EKVX	0.868	0.858	0.852	0.819	0.831	0.859	0.892	0.836	0.918	0.802	0.251	0.198	0.203	0.524	0.191	0.422	0.373	0.361	0.378	0.344
EMC-BAC-2	0.79	0.665	0.739	0.756	0.709	0.496	0.509	0.472	0.507	0.482	0.604	0.987	0.907	0.861	0.957	0.304	0.298	0.314	0.28	0.283
EPLC-272H	1.04	0.942	0.895	–	0.897	0.836	0.866	1.24	0.904	0.603	1.08	0.736	0.907	1.19	0.937	0.262	0.193	0.254	0.333	0.217
